Measured values reported in ChEMBL document CHEMBL1201862, “PubChem BioAssay data set” (2004).
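Following 48 hours of exposure in 96-well plates, responses at five concentrations were used to interpolate endpoints linearly. Here, GI50 denotes the concentration required for 50% inhibition of growth.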 Activity calls are given as the source filed them. Cut-off read from the data, not from the text of the source: active = GI50 up to about 1.1 µM and inactive = higher.

Legend:
Experiment in all cases: DTP human tumour cell line panel, 48 h
EKVX = tested on: EKVX
Malme-3M = tested on: Malme-3M
HCT-15 = tested on: HCT-15
COLO 205 = tested on: COLO 205
RXF 393 = tested on: RXF 393
OVCAR-3 = tested on: OVCAR-3
SN12C = tested on: SN12C
NCI-H460 = tested on: NCI-H460
KM12 = tested on: KM12
UACC-257 = tested on: UACC-257
MOLT-4 = tested on: MOLT-4
TK-10 = tested on: TK-10
HOP-62 = tested on: HOP-62
NCI/ADR-RES = tested on: NCI/ADR-RES
A549 = tested on: A549
DU-145 = tested on: DU-145
PC-3 = tested on: PC-3
M14 = tested on: M14
RPMI-8226 = tested on: RPMI-8226

SMILES | GI50 (EKVX) | GI50 (Malme-3M) | GI50 (HCT-15) [µM] | GI50 (COLO 205) | GI50 (RXF 393) | GI50 (OVCAR-3) | GI50 (SN12C) | GI50 (NCI-H460) | GI50 (KM12) | GI50 (UACC-257) | GI50 (MOLT-4) | GI50 (TK-10) | GI50 (HOP-62) | GI50 (NCI/ADR-RES) | GI50 (A549) | GI50 (DU-145) | GI50 (PC-3) | GI50 (M14) | GI50 (RPMI-8226)
CC(C)(C)C1=C(Br)C(O)(C(C)(C)C)OP1(=O)c1ccccc1 (configuration not stated) | > 100 µM (inactive) | > 100 µM (inactive) | > 100 | > 100 µM (inactive) | > 100 µM (inactive) | > 100 µM (inactive) | > 100 µM (inactive) | > 100 µM (inactive) | > 100 µM (inactive) | > 100 µM (inactive) | > 100 µM (inactive) | > 100 µM (inactive) | > 100 µM (inactive) | > 100 µM (inactive) | > 100 µM (inactive) | > 100 µM (inactive) | > 100 µM (inactive) |  | 
Cc1ccc(-c2cc(-c3ccc(Cl)cc3)nc(/N=C3\C(=O)N(CN(C)C)c4ccccc43)n2)cc1 | > 100 µM (inactive) | > 100 µM (inactive) | 41.1 | 77.8 µM (inactive) | 22.3 µM (inactive) | > 100 µM (inactive) | > 100 µM (inactive) | 39.9 µM (inactive) | 64.6 µM (inactive) | 24.8 µM (inactive) | 11.5 µM (inactive) | 85.3 µM (inactive) | 81.5 µM (inactive) | 43.5 µM (inactive) | 89.1 µM (inactive) | 31.7 µM (inactive) | 50.9 µM (inactive) | > 100 µM (inactive) | 
CCCCCNC(=O)C1C(=O)N(CCCCC)C(=O)/C1=N\N (configuration not stated) | 86.7 µM (inactive) | > 100 µM (inactive) | 59.2 | > 100 µM (inactive) |  | 46.8 µM (inactive) | 54.2 µM (inactive) | 78.5 µM (inactive) | 53.2 µM (inactive) | > 100 µM (inactive) | 40.8 µM (inactive) | > 100 µM (inactive) | 35.5 µM (inactive) |  | 77.6 µM (inactive) |  |  | 57.9 µM (inactive) | 
C[C@@H]1C[C@H]2[C@@H]3CCC4=CC(=O)C=C[C@]4(C)[C@@]3(Cl)[C@@H](Cl)C[C@]2(C)[C@@]1(O)C(=O)COP(=O)(O)O | > 100 µM (inactive) | > 100 µM (inactive) | > 100 | > 100 µM (inactive) | > 100 µM (inactive) | > 100 µM (inactive) | 17.6 µM (inactive) |  | > 100 µM (inactive) | > 100 µM (inactive) | 22 µM (inactive) | > 100 µM (inactive) | > 100 µM (inactive) |  | > 100 µM (inactive) | > 100 µM (inactive) | > 100 µM (inactive) | > 100 µM (inactive) | 0.0128 µM (active)
C[N+]1(C)CC[N+](C)(C)[BH-]1C(O)O | > 100 µM (inactive) |  | > 100 | > 100 µM (inactive) | > 100 µM (inactive) | > 100 µM (inactive) | > 100 µM (inactive) | > 100 µM (inactive) | > 100 µM (inactive) | > 100 µM (inactive) | > 100 µM (inactive) | > 100 µM (inactive) | > 100 µM (inactive) | > 100 µM (inactive) | > 100 µM (inactive) | > 100 µM (inactive) | > 100 µM (inactive) | > 100 µM (inactive) | 
O=C(CCc1ccc(O)cc1)c1c(O)cc(O)cc1OC1OC(CO)C(O)C(O)C1O (configuration not stated) | > 100 µM (inactive) | > 100 µM (inactive) | > 100 | > 100 µM (inactive) |  | > 100 µM (inactive) |  |  | > 100 µM (inactive) | > 100 µM (inactive) |  | > 100 µM (inactive) | > 100 µM (inactive) | > 100 µM (inactive) | > 100 µM (inactive) | > 100 µM (inactive) | > 100 µM (inactive) | > 100 µM (inactive) | 
